According to US7030150B2, “Benzimidazole compounds and antiviral uses thereof” (Trimeris, Inc., priority 2001, dated 2006):

Tested on: uninfected Hep2 cells
Details: not given

Row | Compound | CC50 [µM]
1 | Fc1cccc(F)c1CNCc1nc2ccccc2n1Cc1nc2ccccc2[nH]1 [compound 161] | ≥ 100
2 | CCN(CC)CCNCc1nc2ccccc2n1Cc1nc2ccccc2[nH]1 [compound 162] | ≥ 100
3 | Clc1ccc(CCNCc2nc3ccccc3n2Cc2nc3ccccc3[nH]2)cc1 [compound 163] | 16
4 | CNCc1nc2ccccc2n1Cc1nc2ccccc2[nH]1 [compound 164] | ≥ 100
5 | c1ccc2[nH]c(Cn3c(CNC4CCCCC4)nc4ccccc43)nc2c1 [compound 165] | ≥ 100
6 | O=c1[nH]ccn1CCNCc1nc2ccccc2n1Cc1nc2ccccc2[nH]1 [compound 166] | ≥ 100
7 | Fc1ccc(CCNCc2nc3ccccc3n2Cc2nc3ccccc3[nH]2)cc1 [compound 167] | ≥ 100
8 | c1ccc(CC(NCc2nc3ccccc3n2Cc2nc3ccccc3[nH]2)c2ccccc2)cc1 (centres unmarked) [compound 168] | ≥ 100
9 | c1ccc2[nH]c(Cn3c(CNCc4ccc5c(c4)OCO5)nc4ccccc43)nc2c1 [compound 169] | ≥ 100
10 | c1ccc2[nH]c(Cn3c(CNCC4CCCO4)nc4ccccc43)nc2c1 (centres unmarked) [compound 170] | ≥ 100
11 | Clc1ccc(CNCc2nc3ccccc3n2Cc2nc3ccccc3[nH]2)cc1Cl [compound 171] | 58
12 | CN1CCCC1CCNCc1nc2ccccc2n1Cc1nc2ccccc2[nH]1 (centres unmarked) [compound 172] | 95
13 | Fc1cc(F)cc(CNCc2nc3ccccc3n2Cc2nc3ccccc3[nH]2)c1 [compound 173] | 6.4
14 | CN(C)CCCNCc1nc2ccccc2n1Cc1nc2ccccc2[nH]1 [compound 174] | ≥ 100
15 | COc1ccccc1CCNCc1nc2ccccc2n1Cc1nc2ccccc2[nH]1 [compound 175] | ≥ 100
16 | CCCCC(CO)NCc1nc2ccccc2n1Cc1nc2ccccc2[nH]1 (centres unmarked) [compound 176] | ≥ 100
17 | c1ccc2[nH]c(Cn3c(CNC4CCCC4)nc4ccccc43)nc2c1 [compound 177] | ≥ 100
18 | c1ccc2c(NCc3nc4ccccc4n3Cc3nc4ccccc4[nH]3)cccc2c1 [compound 180] | 14
19 | COc1cccc(CNCc2nc3ccccc3n2Cc2nc3ccccc3[nH]2)c1OC [compound 181] | ≥ 100
20 | CCOCCCNCc1nc2ccccc2n1Cc1nc2ccccc2[nH]1 [compound 182] | ≥ 100
21 | FC(F)(F)c1ccc(N2CCN(Cc3nc4ccccc4n3Cc3nc4ccccc4[nH]3)CC2)nc1 [compound 196] | 78
22 | COc1ccc(N2CCN(Cc3nc4ccccc4n3Cc3nc4ccccc4[nH]3)CC2)cc1 [compound 197] | ≥ 100
23 | O=C(c1ccco1)N1CCN(Cc2nc3ccccc3n2Cc2nc3ccccc3[nH]2)CC1 [compound 198] | ≥ 100
24 | c1ccc2[nH]c(Cn3c(CN4CCCC4)nc4ccccc43)nc2c1 [compound 199] | ≥ 100
25 | c1ccc2[nH]c(Cn3c(CN4CCC4)nc4ccccc43)nc2c1 [compound 200] | 7.6
26 | C1=CCN(Cc2nc3ccccc3n2Cc2nc3ccccc3[nH]2)C1 [compound 201] | 19
27 | C1=CCN(Cc2nc3ccccc3n2Cc2nc3ccccc3[nH]2)CC1 [compound 202] | ≥ 100

Row | Compound | CC50 [µM]
28 | CCOC(=O)C1CCN(Cc2nc3ccccc3n2Cc2nc3ccccc3[nH]2)CC1 [compound 203] | ≥ 100
29 | c1ccc(CC2=NCCN2Cc2nc3ccccc3n2Cc2nc3ccccc3[nH]2)cc1 [compound 204] | ≥ 100
30 | CC1CC(C)CN(Cc2nc3ccccc3n2Cc2nc3ccccc3[nH]2)C1 (centres unmarked) [compound 205] | ≥ 100
31 | CC1C=CC(C)N1Cc1nc2ccccc2n1Cc1nc2ccccc2[nH]1 (centres unmarked) [compound 207] | ≥ 100
32 | OCC1CCCN1Cc1nc2ccccc2n1Cc1nc2ccccc2[nH]1 (centres unmarked) [compound 209] | ≥ 100
33 | OCC1CCCCN1Cc1nc2ccccc2n1Cc1nc2ccccc2[nH]1 (centres unmarked) [compound 210] | 8
34 | OCC1CCCN(Cc2nc3ccccc3n2Cc2nc3ccccc3[nH]2)C1 (centres unmarked) [compound 211] | 32
35 | OCCC1CCCCN1Cc1nc2ccccc2n1Cc1nc2ccccc2[nH]1 (centres unmarked) [compound 213] | ≥ 100
36 | c1ccc2[nH]c(Cn3c(CN4CCC5CCCCC5C4)nc4ccccc43)nc2c1 (centres unmarked) [compound 214] | ≥ 100
37 | FC(F)(F)c1cnc(N2CCCN(Cc3nc4ccccc4n3Cc3nc4ccccc4[nH]3)CC2)c(Cl)c1 [compound 215] | ≥ 100
38 | OCCOCCN1CCN(Cc2nc3ccccc3n2Cc2nc3ccccc3[nH]2)CC1 [compound 216] | 9
39 | c1ccc2[nH]c(Cn3c(CN4CCC(C5CCNCC5)CC4)nc4ccccc43)nc2c1 [compound 217] | ≥ 100
40 | FC(F)(F)c1cccc(N2CCN(Cc3nc4ccccc4n3Cc3nc4ccccc4[nH]3)CC2)c1 [compound 219] | ≥ 100
41 | Oc1ccc(N2CCN(Cc3nc4ccccc4n3Cc3nc4ccccc4[nH]3)CC2)cc1 [compound 220] | ≥ 100
42 | c1ccc2[nH]c(Cn3c(CN4CCSC4)nc4ccccc43)nc2c1 [compound 222] | ≥ 100
43 | COc1cc2c(cc1OC)C(CC#N)N(Cc1nc3ccccc3n1Cc1nc3ccccc3[nH]1)CC2 (centres unmarked) [compound 223] | ≥ 100
44 | O=C1c2ccccc2C(=O)N1Cc1nc2ccccc2n1Cc1nc2ccccc2[nH]1 [compound 226] | 50
45 | Cc1ccc(N2CCN(Cc3nc4ccccc4n3Cc3nc4ccccc4[nH]3)CC2)c(C)c1 [compound 227] | ≥ 100
46 | c1ccc2[nH]c(Cn3c(CN4CCC(N5CCCC5)CC4)nc4ccccc43)nc2c1 [compound 228] | 60
47 | CCN1CCN(Cc2nc3ccccc3n2Cc2nc3ccccc3[nH]2)CC1 [compound 230] | ≥ 100
48 | c1ccc(CN2CCN(Cc3nc4ccccc4n3Cc3nc4ccccc4[nH]3)CC2)cc1 [compound 231] | 15
49 | O=C(OCc1ccccc1)N1CCCCN(Cc2nc3ccccc3n2Cc2nc3ccccc3[nH]2)CC1 [compound 232] | ≥ 100
50 | c1ccc2[nH]c(Cn3c(CN4CCCCCCC4)nc4ccccc43)nc2c1 [compound 233] | ≥ 100
51 | c1ccc2[nH]c(Cn3c(CN4CCC5CCCCC5C4)nc4ccccc43)nc2c1 (centres unmarked) [compound 234] | 24
52 | O=C1C(=O)N(Cc2nc3ccccc3n2Cc2nc3ccccc3[nH]2)c2ccc(Br)cc21 [compound 235] | ≥ 100
53 | O=C1C(=O)N(Cc2nc3ccccc3n2Cc2nc3ccccc3[nH]2)c2ccc([N+](=O)[O-])cc21 [compound 236] | ≥ 100
54 | O=C1C(=O)N(Cc2nc3ccccc3n2Cc2nc3ccccc3[nH]2)c2ccc(F)cc21 [compound 237] | 65

Tested on: poliovirus type 1
Details: monkey kidney and HeLa cell cultures; cited from earlier work

Row | Compound | inhibition of poliovirus type 1
55 | OC(c1ccccc1)c1nc2ccccc2[nH]1 (stereo not drawn) [2-(α-hydroxybenzyl)benzimidazole] | inhibits

Tested on: picornaviruses
Details: cited from earlier work

Row | Compound | antiviral activity against an assortment of picornaviruses
56 | OC(c1nc2ccccc2[nH]1)C(O)c1nc2ccccc2[nH]1 (centres unmarked) [1,2-bis(2-benzimidazole)-1,2-ethanediol] | active
57 | OC(c1ccccc1)c1nc2ccccc2[nH]1 (stereo not drawn) [2-(α-hydroxybenzyl)benzimidazole] | active
58 | c1ccc2[nH]cnc2c1 [benzimidazole] | active

Tested on: rhinoviruses
Details: cited from earlier work

Row | Compound | inhibition of the cytopathic effect [%]
59 | COc1ccc2[nH]c(C(O)C(O)c3nc4cc(OC)ccc4[nH]3)nc2c1 (centres unmarked) [1,2-(5-methoxy-2-benzimidazole)-1,2-ethanediol] | 100
